Measured values published in patent US9102636B2, “Analgesic compounds, compositions, and uses thereof” (Galleon Pharmaceuticals, Inc., priority 2010, dated 2015).
Where “and” joins values, the source holds several entries; their conditions need not be identical. Equal entries are not always repeated. Structures can show the parent of a compound that is named as a salt.

How the values were obtained:
[1] = system: Carrageenan-induced thermal hyperalgesia; assay: Carrageenan-induced thermal hyperalgesia (Hargreaves); type: in vivo, rat; conditions: indomethacin 30 mg/kg p.o. prior to carrageenan; for Paw withdrawal latency: cut-off 40 s, individual animals
Protocol: (§1) The effect of Compound 2 in the rat carrageenan model of acute inflammatory pain was evaluated. The intraplantar carrageenan model of acute inflammatory pain in the rat results in behaviors similar to that observed in patients and has been widely used to assess novel pharmacological treatments (Whiteside et al., 2005, J. Pharmacol. Exp. Ther. 314:1234-1240). The objective of this study was to evaluate the ability of Compound 2 to reverse or prevent development of thermal hyperalgesia and edema in the rat carrageenan model of acute inflammatory pain. The positive control was indomethacin (Sigma, St. Louis), and the negative control was vehicle (0.5% methyl cellulose). […] The Hargreaves apparatus was obtained from Ugo Basile, Italy, and the lamba-carrageenan was obtained from Sigma, St. Louis. For this assay, paw withdrawal latency to a thermal stimulus was assessed using a radiant heat source (Ugo Basile, Italy) aimed at the plantar surface of the left hind paw (Hargreaves test). […] Paw volume was measured by displacement of water and assuming a tissue density equal to that of water. Baseline latencies were taken prior to carrageenan administration and re-assessed 4 h later. Compound 2 or vehicle was administered (10 and 30 mg/kg, p.o.) 3 hrs after carrageenan (curative) and behavior assessed 1 hr later. […] Indomethacin (positive control, 30 mg/kg p.o.) was administered prior to carrageenan and behavior assessed 4 hrs post-carrageenan. […] After induction of anesthesia, the injection site was prepared in a sterile manner and 50 μl of a 2% Jamba-carrageenan was injected. After injection, animals were weighed and allowed to recover before being returned to their home cages. Statistical significance was determined on untransformed data using a two-way analysis of variance (Graphpad Prism, NC). Significant main effects were analyzed further by subsequent Bonferronni post-hoc test. The level of significance was set at p<0.05. Data are shown as mean±S.E.M. (with an asterisk to denote significance as compared to vehicle treated controls).

[2] = system: Carrageenan-induced edema; assay: Carrageenan-induced edema (paw volume); type: in vivo, rat; conditions: indomethacin 30 mg/kg p.o. prior to carrageenan; for Paw volume: individual animals
Protocol: as §1, with “later.” for “later. Compound 2 or vehicle was administered (10 and 30 mg/kg, p.o.) 3 hrs after carrageenan (curative) and behavior assessed 1 hr later.”

`COC(=O)c1ccc(NC2=N[C@H](C(=O)O)CS2)c(O)c1` (as salt: HCl) [Compound 12, (R)-2-(2-Hydroxy-4-methoxycarbonylphenylamino)-thiazoline-4-carboxylic acid] gave a melting point of 118 to 120 °C.

Molecule `Cc1c(Cl)cc(NC2=N[C@H](C(=O)O)CS2)c(O)c1Cl` (as salt: HCl) [Compound 8, (R)-2-(3,5-Dichloro-2-hydroxy-4-methylphenylamino)-thiazoline-4-carboxylic acid] has a melting point of 205 to 207 °C.

`O=C(O)[C@@H]1CSC(Nc2ccc(F)cc2O)=N1` (as salt: HCl) [Compound 6, (R)-2-(4-Fluoro-2-hydroxyphenylamino)-thiazoline-4-carboxylic acid] showed a melting point of 109 to 111 °C.

For `COc1ccc2c(c1)c(CC(=O)O)c(C)n2C(=O)c1ccc(Cl)cc1` [indomethacin, reference compound], the “carrageenan-induced thermal hyperalgesia, positive control preemptive” value ([1]; rat, 4 hrs post-carrageenan) was “statistically significant prevention” and the “carrageenan-induced edema, positive control preemptive” value ([2]; rat, 4 hrs post-carrageenan) was “statistically significant prevention”.

In the case of `COc1ccc2c(c1)c(CC(=O)O)c(C)n2C(=O)c1ccc(Cl)cc1` [Indo], the “Paw withdrawal latency” value ([1]; 4 hrs post-carrageenan (second line)) is reported as 17 s and 35 s and 26 s and 28 s and 40 s (2×), the “Paw withdrawal latency” value ([1]; baseline prior to carrageenan (first line)) is reported as 20 s and 40 s and 17 s and 32 s and 23 s and 24 s and the “Paw volume” value ([2]; 4 hr post-drug) is reported as 2.5 mL and 2.4 mL and 2.3 mL (2×) and 2.2 mL and 1.8 mL. The “Paw volume” value ([2]; Pre-Cg) was 1.7 mL (2×) and 1.5 mL (2×) and 1.8 mL and 1.4 mL.
